Columns and labels:
αA-crystallin (αAC) = assay: Crystallin levels in solubilized human lens proteins (Western blot), αAC; format: biochemical; settings: 500 μM, solubilized proteins of three human lenses
Procedure: The contents of crystalline proteins [αA-crystallin (αAC), αB-crystallin (αBC), β-crystallin (βC), and γ-crystallin (γC)] in the solubilized proteins of three human lenses treated with either Aggrelyte-2 or Aggrelyte-2C (500 μM) from Example 4 were determined by Western blot analysis as described for Example 5. Membranes were incubated with antibodies against αAC (1:14,000 dilution; Enzo Life Sciences, Catalog #ADI-SPA-221D), αBC (1:700,000 dilution; University of Iowa), βC (1:14,000 dilution; Santa Cruz Biotechnology, Catalog #sc-22745), and γC (1:7,000 dilution; Santa Cruz Biotechnology, Catalog #sc-22746). The secondary antibodies were HRP-conjugated anti-mouse IgG for αBC and HRP-conjugated […] (Cell Signaling Technology, Catalog #7074S) for αAC, βC, and γC. According to the supplier, the […] detects mostly βB1-crystallin and, to a lesser extent, βA1/3, βA2, βA4, βB2, and βB3-crystallin. The γC antibody reacts with γA, γB, γC, γD, γE, and γF-crystallin.

γD-crystallin (γDC) = biological target: T1, γD-crystallin (γDC) (Homo sapiens, UniProt P07320); assay: AGE formation (CML, CEL) in glycated recombinant γD-crystallin; format: biochemical; settings: γDC 2 mg/mL pretreated with 1.25 mM aggrelyte-2 for 24 h, glycating mixture 5 days
T1 sequence (P07320 1-174): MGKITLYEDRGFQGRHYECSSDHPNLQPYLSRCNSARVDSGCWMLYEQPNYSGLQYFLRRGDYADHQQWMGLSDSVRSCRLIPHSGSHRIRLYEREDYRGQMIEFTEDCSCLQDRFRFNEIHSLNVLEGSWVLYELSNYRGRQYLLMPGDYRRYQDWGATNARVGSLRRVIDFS
Procedure: To investigate the effects of Aggrelyte-2 on advanced glycation end product (AGE) formation, human recombinant αAC (3 mg/mL) or γD-crystallin (γDC, 2 mg/mL) in PBS was treated with or without aggrelyte-2 (10 mM for αAC and 1.25 mM for γDC) for 24 h, dialyzed against 100 mM sodium phosphate buffer pH 7.4 for 16 h and incubated with or without a glycating mixture (2 mM ascorbate, 25 mM D-glucose and 250 μM methylglyoxal) in 100 mM sodium phosphate buffer pH 7.4 for 5 days (after adding 0.002% sodium azide) at 37° C. The incubated proteins were dialyzed against PBS for 16 h, treated with 100 mM sodium borohydride for 1 h at room temperature, and acid hydrolyzed. Two AGEs, N^−-carboxymethyllysine (CML) and N^□-carboxyethyllysine (CEL), were measured by LC-MS/MS as described above. Each sample was separately processed 3-4 times.

mouse lenses = assay: Acetylated proteins in ex vivo treated mouse lenses (Western blot, Example 19); settings: 1 mM, 24 hours
Procedure: The lenses from Example 18 were homogenized using N2-bubbled 50 mM phosphate buffer, pH 7.4 (0.4 mL per lens), in a hand-held motorized homogenizer. The homogenate was centrifuged at 20,000×g for 20 minutes at 4° C. The resulting supernatant was collected, and its protein content was measured using BCA Protein Assay Kit using BSA as the standard. The soluble protein was subjected to 12% SDS-PAGE under denaturing conditions and the proteins were electrophoretically transferred to a nitrocellulose membrane and blocked with 5% nonfat dry milk. The membrane was then incubated with a monoclonal antibody against N-acetyllysine (AcK antibody @ 1:5,000 dilution; Cell Signaling Technology Catalog #9681S) for 16 hours, followed by horseradish peroxidase (HRP)-conjugated goat anti-mouse IgG (1:5,000 dilution; Cell Signaling Technology Catalog #7076S) for 1 hour. Chemiluminescence was detected using the Enhanced Chemiluminescence Detection Kit. The membrane was stained with Ponceau-S to visualize the proteins and normalize acetyllysine (AcK)-bearing protein to total protein load.

levels of both CML and CEL (AGEs) after glycation (γD-crystallin (γDC)): significantly reduced (p<0.0001)
SMILES: COC(=O)[C@H](CSC(C)=O)NC(C)=O [Aggrelyte-2, N,S-diacetyl-L-cysteine methyl ester]
levels of αAC, fold higher than in the Aggrelyte-2C-treated samples (αA-crystallin (αAC)): 1.3 fold
density of acetyl-bearing proteins, fold increase compared to untreated control lenses (mouse lenses): 2 fold
